Results published in US11883387B2, “PqsR inverse agonists” (HELMHOLTZ-ZENTRUM FÜR INFEKTIONSFORSCHUNG GMBH, priority 2018, dated 2024).

Tests used:
[1] = tested on: P. aeruginosa pyocyanin production; test: Pyocyanin assay; type: cell-based, P. aeruginosa PA14; conditions: Pseudomonas aeruginosa, PA14, 16 h, read-out: IC50-value towards pyocyanin production, PA14 in PPGAS medium, 16 h
How it was run: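 PA14 in PPGAS medium from OD600 0.02 grown 16 h at 37 °C, 200 rpm, with compounds. Pyocyanin extracted with chloroform, back-extracted into 0.2 M HCl, OD520 normalised to OD600.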

[2] = Metabolic stability in mouse liver microsomes (MLM); type: in vitro ADME; conditions: 1 μM compound, 0.5 mg/mL MLM, 1 mM NADPH, 37° C., read-out: half-life (t1/2) towards MLM
Protocol: For the evaluation of phase I metabolic stability, the compound (1 μM) was incubated with 0.5 mg/mL MLM (Corning) and 1 mM NADPH at 37° C. for 0, 5, 10, 15 and 30 min. The metabolic stability of Verapamil, Diphenhydramine and Benzydamine (1 μM each) were determined in parallel to confirm the enzymatic activity of the MLM. The incubation was stopped by addition of 2 volumes of acetonitrile containing internal standard (1 μM Leucine Enkephaline). Samples were centrifuged (15 min, 3,500 rpm). Concentration of the remaining test compound at the different time points was analyzed by HPLC-MS/MS and used to determine half-life (t1/2).

[3] = Kinetic Turbidimetric Aqueous Solubility at room temperature for 5 min; type: physicochemical; conditions: PBS buffer, kinetic from dmso stock, 2% DMSO
How it was run: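 Compound diluted in PBS across typically 0.4–200 μM (final DMSO 2%), held 5 min at room temperature. Turbidity read as absorbance at 620 nm against vehicle control. Four-parameter sigmoidal fit of normalized absorbances with AUC calculation gives Log S.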

PqsR = PqsR (Pseudomonas aeruginosa, UniProt Q9I4X0); test: E. coli based β-galactosidase reporter gene assay (PqsR inverse agonistic activity); type: cell-based; set-up: expressed in transfected cells; host or cells: Escherichia coli DH5α
How it was run: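 E. coli DH5α carrying pEAL08-2 (tac-driven pqsR with pqsA-lacZ) was grown to OD600 0.2 and incubated with 0.001–10 μM compound plus 50 nM PQS for 2.5 h at 37 °C. β-Galactosidase activity was measured by ONPG conversion in permeabilized cells and normalized between the no-PQS and solvent controls. IC50 came from concentration variation.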

[4] = Metabolic stability against human hepatic S9 fraction; type: in vitro ADME; conditions: pooled human liver S9 fraction; 1 μM compound, 1 mg/mL pooled human liver S9, phase I and II cofactors, 37° C.; read-out: half-life (t1/2) towards human hepatic S9 fraction
Protocol: For the evaluation of combined phase I and phase II metabolic stability, the compound (1 μM) was incubated with 1 mg/mL pooled human liver S9 fraction (BD Gentest), 2 mM NADPH regenerating system, 1 mM UDPGA, 10 mM MgCl2 and 0.1 mM PAPS at 37° C. for 0, 5, 15, 30 and 60 min. The metabolic stability of Testosterone (1 μM) and 7-hydroxycoumarin (1 μM) were determined in parallel to confirm the enzymatic activity of the S9 fraction. The incubation was stopped by precipitation of S9 enzymes with 2 volumes of cold acetonitrile containing internal standard (750 nM Diphenhydramine). Samples were stored on ice for 10 min and precipitated protein was removed by centrifugation (10 min, 4° C., 17,000 g). Concentration of the remaining test compound at the different time points was analyzed by LC-MS/MS (TSQ Quantum Access MAX, Thermo Fisher, Dreieich, Germany) and used to determine half-life (t/2).

HepG2 cells = test: Cytotoxicity (MTT) toward HepG2; type: cell-based; conditions: Homo sapiens, 48 h, upper class: or at solubility maximum, read-out: IC50-value towards HepG2
Protocol: To obtain information regarding the toxicity of our compounds, their impact on the viability of human cells was investigated. HepG2 and HEK293 cells (2×10^5 per well) were seeded in 24-well, flat-bottomed culture plates. 24 h after seeding the cells the incubation was started by the addition of compounds in a final DMSO concentration of 1%. The living cell mass was determined 48 h after treatment with compounds by adding 0.1 volumes of 3-(4,5-dimethylthiazol-2-yl)-2,5-diphenyltetrazolium bromide (MTT) solution (5 mg per mL sterile PBS) (Sigma, St. Louis, MO) to the wells. After incubating the cells for 30 min at 37° C. (atmosphere containing 5% CO2), MTT crystals were dissolved in a solution containing 10% SDS and 0.5% acetic acid in DMSO. The optical density (OD) of the samples was determined photometrically at 570 nm in a FLUOstar Omega plate reader (BMG labtech, Ortenberg, Germany). To obtain inhibition values for each sample, their ODs were related to those of DMSO controls.

PqsR, sequence (Q9I4X0 whole entry): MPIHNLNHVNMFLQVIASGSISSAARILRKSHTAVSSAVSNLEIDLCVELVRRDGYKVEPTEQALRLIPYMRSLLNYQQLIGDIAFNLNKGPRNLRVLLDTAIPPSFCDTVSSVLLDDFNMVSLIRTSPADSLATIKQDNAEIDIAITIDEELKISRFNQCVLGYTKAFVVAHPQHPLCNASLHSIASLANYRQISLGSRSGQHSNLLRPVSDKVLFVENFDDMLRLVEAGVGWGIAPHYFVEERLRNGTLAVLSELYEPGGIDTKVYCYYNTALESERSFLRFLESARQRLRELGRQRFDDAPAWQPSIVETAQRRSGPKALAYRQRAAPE

| Structure (SMILES) | IC50 [1] | half-life at 1 μM [2] | solubility at 5 min [3] | IC50 (PqsR) | half-life at 1 μM [4] | IC50 (HepG2 cells) |
| --- | --- | --- | --- | --- | --- | --- |
| Oc1cc(NCc2cn(-c3ccc(Oc4ccccc4)cc3)nn2)cc(C(F)(F)F)n1 [Compound 050, 4-(((1-(4-Phenoxyphenyl)-1H-1,2,3-triazol-4-yl)methyl)amino)-6-(trifluoromethyl)pyridin-2-ol] | 1000 to 5000 nM | > 1 h | ≥ 100 µM | ≤ 50 nM |  |  |
| FC(F)(F)c1cc(SCc2cn(-c3ccc(Oc4ccccc4)cc3)nn2)ccn1 [Compound 054, 4-(((1-(4-phenoxyphenyl)-1H-1,2,3-triazol-4-yl)methyl)thio)-2-(trifluoromethyl)pyridine] | 251 to 1000 nM |  |  | ≤ 50 nM | > 1 h |  |
| FC(F)(F)c1cc(SCc2cnc(-c3ccc(Oc4ccccc4)cc3)s2)ccn1 [Compound 066, 2-(4-Phenoxyphenyl)-5-(((2-(trifluoromethyl)pyridin-4-yl)thio)methyl)thiazole] | 1000 to 5000 nM |  |  | 51 to 250 nM | > 1 h |  |
| FC(F)(F)c1cc(NCc2cnc(-c3ccc(Cl)cc3)s2)ccn1 [Compound 072, N-((2-(4-Chlorophenyl)thiazol-5-yl)methyl)-2-(trifluoromethyl)pyridin-4-amine] | 251 to 1000 nM | > 1 h | > 25 µM | 51 to 250 nM | > 1 h | 25000 to 50000 nM |
| FC(F)(F)c1cc(NCc2cnc(-c3ccc(Cl)nc3)s2)ccn1 [Compound 073, N-((2-(6-Chloropyridin-3-yl)thiazol-5-yl)methyl)-2-(trifluoromethyl)pyridin-4-amine] | 1000 to 5000 nM | > 1 h | ≥ 100 µM | 51 to 250 nM |  |  |
| N#Cc1cc(NCc2cnc(-c3ccc(Oc4ccccc4)cc3)s2)ccn1 [Compound 076, 4-(((2-(4-Phenoxyphenyl)thiazol-5-yl)methyl)amino)picolinonitrile] | ≤ 250 nM | > 1 h |  | ≤ 50 nM | > 1 h |  |
| COc1ccc(-c2ncc(CNc3ccnc(C#N)c3)s2)cc1Cl [Compound 077, 4-(((2-(3-Chloro-4-methoxyphenyl)thiazol-5-yl)methyl)amino)picolinonitrile] | ≤ 250 nM |  | > 10 µM | ≤ 50 nM |  | 25000 to 50000 nM |
| FC(F)(F)c1cc(NCc2csc(-c3ccc(C4CC4)cc3)n2)ccn1 [Compound 081, N-((2-(4-Cyclopropylphenyl)thiazol-4-yl)methyl)-2-(trifluoromethyl)pyridin-4-amine] | ≤ 250 nM |  |  | ≤ 50 nM | 0.683 to 1 h |  |
| CC(C)Oc1ccc(-c2nc(CNc3ccnc(C(F)(F)F)c3)cs2)cc1Cl [Compound 082, N-((2-(3-Chloro-4-isopropoxyphenyl)thiazol-4-yl)methyl)-2-(trifluoromethyl)pyridin-4-amine] | ≤ 250 nM |  |  | ≤ 50 nM | > 1 h |  |
| CC(C)Oc1ccc(-c2nc(CNc3ccnc(C(F)(F)F)c3)cs2)cc1 [Compound 087, N-((2-(4-Isopropoxyphenyl)thiazol-4-yl)methyl)-2-(trifluoromethyl)pyridin-4-amine] | ≤ 250 nM |  | > 10 µM | ≤ 50 nM | > 1 h |  |
| FC(F)(F)c1cc(NCc2ccc(-c3cnc(Cl)c(Cl)c3)cn2)ccn1 [Compound 102, N-((5′,6′-Dichloro-[3,3′-bipyridin]-6-yl)methyl)-2-(trifluoromethyl)pyridin-4-amine] | 251 to 1000 nM | 0.517 to 1 h | > 50 µM | 51 to 250 nM |  |  |
| FC(F)(F)c1cc(NCc2cnc(-c3ccc(Oc4ccccc4)cc3)nc2)ccn1 [Compound 105, N-((2-(4-Phenoxyphenyl)pyrimidin-5-yl)methyl)-2-(trifluoromethyl)pyridin-4-amine] | 251 to 1000 nM | 0.517 to 1 h | > 10 µM | 51 to 250 nM |  |  |
| CC(C)Oc1ccc(-c2ncc(CNc3ccnc(C(F)(F)F)c3)cn2)cc1 [Compound 106, N-((2-(4-isopropoxyphenyl)pyrimidin-5-yl)methyl)-2-(trifluoromethyl)pyridin-4-amine] | 251 to 1000 nM | > 1 h | > 25 µM | 51 to 250 nM |  |  |
| FC(F)(F)c1cc(SCc2ccc(-c3ccc(Oc4ccccc4)nc3)cn2)ccn1 [Compound 114, 6-Phenoxy-6′-(((2-(trifluoromethyl)pyridin-4-yl)thio)methyl)-3,3′-bipyridine] |  |  |  | 51 to 250 nM | > 1 h |  |
| Nc1cc(SCc2nc3cc(Cl)ccc3[nH]2)nc(C(F)(F)F)n1 [Compound 118, 6-(((5-Chloro-1H-benzo[d]imidazol-2-yl)methyl)thio)-2-(trifluoromethyl)pyrimidin-4-amine] | 1000 to 5000 nM |  |  | 51 to 250 nM | > 1 h |  |
| Nc1cc(SCc2nc3cc(Oc4ccccc4)ccc3[nH]2)nc(C(F)(F)F)n1 [Compound 125, 6-(((5-Phenoxy-1H-benzo[d]imidazol-2-yl)methyl)thio)-2-(trifluoromethyl)pyrimidin-4-amine] | 251 to 1000 nM |  | > 25 µM | ≤ 50 nM | > 1 h |  |
| FC(F)(F)c1cc(NCc2nc3ccc(Oc4ccccc4)cc3o2)ccn1 [Compound 134, N-((6-Phenoxybenzo[d]oxazol-2-yl)methyl)-2-(trifluoromethyl)pyridin-4-amine] |  |  | ≥ 100 µM | 251 to 1000 nM | > 1 h |  |
| Fc1ccccc1Oc1ccc(-n2cc(CNc3ccnc(C(F)(F)F)c3)nn2)cc1 [Compound 144, N-((1-(4-(2-fluorophenoxy)phenyl)-1H-1,2,3-triazol-4-yl)methyl)-2-(trifluoromethyl)pyridin-4-amine] | ≤ 250 nM | 0.517 to 1 h | > 25 µM | ≤ 50 nM |  |  |
| FC(F)(F)c1cc(NCc2cn(-c3ccc(-n4ncc5ccncc54)c(Cl)c3)nn2)ccn1 [Compound 147] | 251 to 1000 nM | 0.517 to 1 h | > 50 µM | ≤ 50 nM |  |  |
| CC(C)Oc1ccc(-c2ncc(CNc3cc(C#N)nc(C(F)(F)F)c3)s2)cc1Cl [Compound 160, 4-(((2-(3-Chloro-4-isopropoxyphenyl)thiazol-5-yl)methyl)amino)-6-(trifluoromethyl)picolinonitrile] | ≤ 250 nM | 0.517 to 1 h | > 10 µM | ≤ 50 nM |  |  |
| CC(C)Oc1ncc(-c2ncc(CNc3ccnc(C(F)(F)F)c3)cn2)cc1Cl [Compound 164, N-((2-(5-chloro-6-isopropoxypyridin-3-yl)pyrimidin-5-yl)methyl)-2-(trifluoromethyl)pyridin-4-amine] | 251 to 1000 nM | > 1 h | > 25 µM | ≤ 50 nM |  |  |
| CC(C)Oc1ccc(-c2ccc(CNc3ccnc(C(F)(F)F)c3)nc2)cc1Cl [Compound 165, N-((5-(3-chloro-4-isopropoxyphenyl)pyridin-2-yl)methyl)-2-(trifluoromethyl)pyridin-4-amine] | 251 to 1000 nM | > 1 h | > 25 µM | ≤ 50 nM |  |  |
